Experimental data: ChEMBL document CHEMBL1154993, “A cyclohexanonyl bromophenol from the red alga Symphyocladia latiuscula” (J Nat Prod, 2000)

Test system: Radical scavenging activity
Assay: Antioxidant activity assessed as DPPH radical scavenging activity after 30 mins by spectrophotometer
Format: functional

IC50	SMILES
15.3 µM	O=C1O[C@H]([C@@H](O)CO)C(O)=C1O [ASCORBIC ACID]
7.5 µM	OCc1c(Br)c(O)c(O)c(Br)c1Br
8.5 µM	O=C1CCCC[C@@H]1Cc1c(Br)c(O)c(O)c(Br)c1Br [SYMPHYOKETONE]
